Holding throughout (test): Bliss excess, mean over the matrix (fraction); higher = more synergy
For one experiment, the system named is KELLY (Neuroblastoma). Summed up:
(§1)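 Cell lines grown in DMEM/F12 or RPMI with 10% FBS were plated in 1536-well plates and held 24 hours at 37°C, 5% CO2 before 72 hours of exposure to two-drug dose matrices, with DMSO typically at 0.2%. CellTiter-Glo 2.0 luminescence gave viability, which was converted to inhibition. Vehicle wells were set to 0 and blank wells to 1. Combination Emax is the second-highest inhibition in the matrix, and Bliss excess is the observed combination effect minus the expected EA + EB − EA·EB, where EA and EB are the single-agent effects.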

The test system of experiment [1] is Ramos-2G6-4C10 (Burkitt's Lymphoma). Summed up:
as §1

The test system of experiment [2] is HCC-78 (Lung Adenocarcinoma). In short, it runs like this: as §1
Experiment [3] has as its system RO82-W-1 (Thyroid Gland Carcinoma). Summed up:
as §1

Experiment [4] relates to LS-180 (Colorectal Carcinoma). Summed up:
as §1

For experiment [5], the system named is LB831-BLC (Bladder Carcinoma). Summed up:
as §1

The test system of experiment [6] is NCI-H2085 (Non-Small Cell Lung Carcinoma). Summed up: as §1
The test system of experiment [7] is CAL-148 (Breast Carcinoma). In short, it runs like this: as §1
The subject of experiment [8] is ME-1 (Acute Myeloid Leukemia). Summed up: as §1
The subject of another experiment is NB10 (Neuroblastoma). Summed up: as §1
The subject of experiment [9] is DoTc2-4510 (Cervical Carcinoma). Summed up: as §1
Experiment [10] relates to TE-9 (Esophageal Squamous Cell Carcinoma). In short, it runs like this:
as §1

For experiment [11], the system named is CaR-1 (Colorectal Carcinoma). Summed up: as §1
For experiment [12], the system named is NCI-H82 (Small Cell Lung Carcinoma). In short, it runs like this:
as §1

For experiment [13], the system named is UM-UC-3 (Bladder Carcinoma). Summed up: as §1
Experiment [14] has as its system Calu-3 (Lung Adenocarcinoma). Summed up: as §1
The subject of experiment [15] is TE-15 (Esophageal Squamous Cell Carcinoma). Summed up:
as §1

Experiment [16] has as its system HO-1-N-1 (Oral Cavity Carcinoma). In short, it runs like this:
as §1

Experiment [17] concerns CCRF-CEM (T-Lymphoblastic Leukemia). In short, it runs like this:
as §1

Experiment [18] relates to Hs-578-T (Breast Carcinoma). Summed up: as §1

Molecules are shown by their SMILES.

Turning to `Cc1c2c(nn1C)CSCc1cc(n(C)n1)CSc1cc(c3ccccc3c1)OCCCc1c(C(=O)O)n(C)c3c-2c(Cl)ccc13` [AZD5991] + CC(=O)O[C@H]1C(=O)[C@@]2(C)[C@H]([C@H](OC(=O)c3ccccc3)[C@]3(O)C[C@H](OC(=O)[C@H](O)[C@@H](NC(=O)c4ccccc4)c4ccccc4)C(C)=C1C3(C)C)[C@]1(OC(C)=O)CO[C@@H]1C[C@@H]2O [Paclitaxel] (first compound max 1 µM, 7x7, partner max 3 µM), the Bliss excess in the experiment on KELLY (Neuroblastoma) was 0.0544; in experiment [1] it was -0.104; in [2], 0.11; in [3], -0.023; in [4] it was -0.033; in experiment [5], 0.0261. Besides, the Bliss excess in experiment [6] is 0.0904; in experiment [7], 0.0436; in [8], -0.0368; in the experiment with NB10 (Neuroblastoma), 0.0264; in experiment [9], -0.0508; in experiment [10] it was 0.0317. For the same compound, the Bliss excess was 0.038 in experiment [11]; -0.0392 in [12]; -0.0693 in experiment [13]; -0.0064 in experiment [14]; 0.0224 in experiment [15]; 0.0062 in experiment [16]. Besides, the values for the Bliss excess in [17] and in experiment [18] were -0.0339 and 0.0368, respectively.
For the compound `C=CCn1c(=O)c2cnc(Nc3ccc(N4CCN(C)CC4)cc3)nc2n1-c1cccc(C(C)(C)O)n1` [AZD1775] + CCc1c2c(nc3ccc(O)cc13)-c1cc3c(c(=O)n1C2)COC(=O)[C@]3(O)CC [SN-38] (first compound max 1 µM, partner max 0.3 µM), the Bliss excess with KELLY (Neuroblastoma) was -0.0534; in experiment [1], 0.0943; in experiment [2], 0.0002; in experiment [3], -0.0352; in experiment [4] it was -0.115; in [5], 0.0518. Further, the Bliss excess in [6] is -0.0202; in experiment [7] it was -0.0022; in experiment [8], -0.0047; in the experiment on NB10 (Neuroblastoma), -0.141; in experiment [9] it was -0.0173; in experiment [10] it was -0.0022. The Bliss excess in [11] was -0.0429; in [12] it was -0.0569; in experiment [13], -0.0431; in experiment [14], -0.0341; in [15], -0.0211; in experiment [16], -0.0092. Moreover, the values for the Bliss excess in experiment [17] and in experiment [18] were -0.0423 and 0.0934, respectively.
For `O=C(c1cc(Cc2n[nH]c(=O)c3ccccc23)ccc1F)N1CCN(C(=O)C2CC2)CC1` [Olaparib] + CC1(C)CCC(CN2CCN(c3ccc(C(=O)NS(=O)(=O)c4ccc(NCC5CCOCC5)c([N+](=O)[O-])c4)c(Oc4cnc5[nH]ccc5c4)c3)CC2)=C(c2ccc(Cl)cc2)C1 [Venetoclax] (first compound max 10 µM, 7x7, partner max 1 µM), the Bliss excess in the experiment with KELLY (Neuroblastoma) is 0.0744; in [1], -0.0167; in [2] it was -0.0181; in experiment [3], -0.0277; in experiment [4], -0.0431; in [5], -0.0271. Further, the Bliss excess in experiment [6] is -0.0608; in experiment [7] it was -0.0581; in experiment [8], 0.0436; in the experiment with NB10 (Neuroblastoma) it was -0.0041; in [9] it was -0.0462; in experiment [10], -0.045. Further, the Bliss excess in [11] was -0.0509; in experiment [12] it was -0.0197; in experiment [13] it was -0.0528; in experiment [14] it was -0.0406; in experiment [15], -0.0098; in experiment [16] it was 0.048. The Bliss excess is -0.0036 in experiment [17] and -0.115 in [18].
As to `C[C@@H](Oc1cc(-c2cnn(C3CCNCC3)c2)cnc1N)c1c(Cl)ccc(F)c1Cl` [Crizotinib] + Cn1cnc2c(F)c(Nc3ccc(Br)cc3Cl)c(C(=O)NOCCO)cc21 [Selumetinib] (first compound max 10 µM, 7x7, partner max 10 µM), the Bliss excess in the experiment with KELLY (Neuroblastoma) is 0.0644; in experiment [1] it was -0.0875; in experiment [2], 0.0444; in [3] it was -0.0227; in experiment [4], -0.0236; in [5], -0.049. For the same compound, the Bliss excess in experiment [6] was -0.0399; in experiment [7] it was -0.0173; in experiment [8], 0.0624; in the experiment on NB10 (Neuroblastoma), -0.0221; in experiment [9] it was -0.0514; in [10], -0.0199. Moreover, the Bliss excess in experiment [11] is 0.0092; in [12], -0.0702; in experiment [13], -0.0136; in experiment [14], -0.0507; in [15] it was -0.021; in [16], -0.0087. Besides, the Bliss excess is -0.0682 in experiment [17] and -0.0131 in experiment [18].
As for `C[C@@H](Oc1cc(-c2cnn(C3CCNCC3)c2)cnc1N)c1c(Cl)ccc(F)c1Cl` [Crizotinib] + CC1=C(C(=CC=C1)Cl)NC(=O)C2=CN=C(S2)NC3=CC(=NC(=N3)C)N4CCN(CC4)CCO [Dasatinib] (first compound max 10 µM, 7x7, partner max 2 µM), the Bliss excess in the experiment on KELLY (Neuroblastoma) was -0.019; in experiment [1], -0.0216; in experiment [2], 0.0887; in [3], 0.0517; in experiment [4], -0.0156; in experiment [5] it was 0.0269. Moreover, the Bliss excess in [6] is 0.0551; in [7], -0.0351; in [8] it was -0.0061; in the experiment with NB10 (Neuroblastoma), -0.0423; in experiment [9] it was 0.0349; in experiment [10] it was 0.0657. Besides, the Bliss excess in experiment [11] was 0.0573; in experiment [12], -0.0642; in [13] it was 0.0577; in experiment [14], -0.0158; in experiment [15], -0.0403; in experiment [16], 0.0921. Also, the Bliss excess is -0.0055 in [17] and 0.0455 in experiment [18].
On to `CN(CCO)CC[C@H](CSc1ccccc1)Nc1ccc(S(=O)(=O)NC(=O)c2ccc(N3CCC([C@@H](O)c4ccccc4-c4ccc(Cl)cc4)CC3)cc2)cc1S(=O)(=O)C(F)(F)F` [AZD4320] + Nc1ccn([C@@H]2O[C@H](CO)[C@@H](O)C2(F)F)c(=O)n1 [Gemcitabine] (first compound max 1 µM, 7x7, partner max 0.3 µM), for which the Bliss excess is 0.0014 in the experiment on KELLY (Neuroblastoma); -0.0368 in experiment [1]; -0.0215 in [2]; -0.0237 in [3]; -0.0907 in experiment [4]; -0.0192 in experiment [5]. The Bliss excess in experiment [6] is 0.0228; in [7] it was 0.0502; in experiment [8], 0.0049; in the experiment on NB10 (Neuroblastoma), -0.0457; in experiment [9], 0.0764; in experiment [10], 0.0151. Moreover, the Bliss excess is 0.0125 in experiment [11]; 0.016 in experiment [12]; -0.0229 in experiment [13]; 0.0076 in experiment [14]; 0.0164 in experiment [15]; -0.0049 in experiment [16]. For the same compound, the Bliss excess in [17] is 0.0061; in experiment [18], 0.14.

(Values after the supplement of paper PMC11061612.)
